How the values were obtained:
[1] = biological target: IKKε (Homo sapiens (Human), UniProt Q14164); assay: IKKε TR-FRET enzymatic assay; format: biochemical; conditions: read-out: IKKe IC50
[2] = biological target: hJAK2 (Homo sapiens (Human), UniProt O60674); assay: hJAK2 LANCE TR-FRET enzymatic assay; format: biochemical; conditions: read-out: JAK2 IC50
[3] = biological target: TBK1 (Homo sapiens (Human), UniProt Q9UHD2); assay: TBK1 TR-FRET enzymatic assay;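 further: phosphorylation of a biotinylated Ser/Thr peptide by purified full-length recombinant TBK1, read by TR-FRET after 240 min at 25 °C, IC50 is the geometric mean of at least four runs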
Sequence of TBK1 (Q9UHD2 whole entry): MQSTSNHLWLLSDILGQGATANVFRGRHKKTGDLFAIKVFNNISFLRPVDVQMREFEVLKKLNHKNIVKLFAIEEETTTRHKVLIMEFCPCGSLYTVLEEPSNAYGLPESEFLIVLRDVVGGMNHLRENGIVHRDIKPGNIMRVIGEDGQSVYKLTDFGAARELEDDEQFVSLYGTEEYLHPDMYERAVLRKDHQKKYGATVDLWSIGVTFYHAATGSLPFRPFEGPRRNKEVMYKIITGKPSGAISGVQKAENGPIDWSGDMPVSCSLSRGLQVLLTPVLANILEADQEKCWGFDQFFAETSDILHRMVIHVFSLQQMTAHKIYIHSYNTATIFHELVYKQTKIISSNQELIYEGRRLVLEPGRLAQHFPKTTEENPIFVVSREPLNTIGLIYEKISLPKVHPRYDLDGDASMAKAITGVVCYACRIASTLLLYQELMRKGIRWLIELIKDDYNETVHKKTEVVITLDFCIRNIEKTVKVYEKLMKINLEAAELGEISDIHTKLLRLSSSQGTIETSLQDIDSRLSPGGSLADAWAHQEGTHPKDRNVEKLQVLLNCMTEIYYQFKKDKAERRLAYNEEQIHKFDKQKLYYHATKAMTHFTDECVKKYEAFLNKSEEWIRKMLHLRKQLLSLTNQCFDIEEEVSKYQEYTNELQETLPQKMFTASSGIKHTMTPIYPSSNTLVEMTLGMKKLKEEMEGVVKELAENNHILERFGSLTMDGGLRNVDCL

Sequence of hJAK2 (O60674 whole entry): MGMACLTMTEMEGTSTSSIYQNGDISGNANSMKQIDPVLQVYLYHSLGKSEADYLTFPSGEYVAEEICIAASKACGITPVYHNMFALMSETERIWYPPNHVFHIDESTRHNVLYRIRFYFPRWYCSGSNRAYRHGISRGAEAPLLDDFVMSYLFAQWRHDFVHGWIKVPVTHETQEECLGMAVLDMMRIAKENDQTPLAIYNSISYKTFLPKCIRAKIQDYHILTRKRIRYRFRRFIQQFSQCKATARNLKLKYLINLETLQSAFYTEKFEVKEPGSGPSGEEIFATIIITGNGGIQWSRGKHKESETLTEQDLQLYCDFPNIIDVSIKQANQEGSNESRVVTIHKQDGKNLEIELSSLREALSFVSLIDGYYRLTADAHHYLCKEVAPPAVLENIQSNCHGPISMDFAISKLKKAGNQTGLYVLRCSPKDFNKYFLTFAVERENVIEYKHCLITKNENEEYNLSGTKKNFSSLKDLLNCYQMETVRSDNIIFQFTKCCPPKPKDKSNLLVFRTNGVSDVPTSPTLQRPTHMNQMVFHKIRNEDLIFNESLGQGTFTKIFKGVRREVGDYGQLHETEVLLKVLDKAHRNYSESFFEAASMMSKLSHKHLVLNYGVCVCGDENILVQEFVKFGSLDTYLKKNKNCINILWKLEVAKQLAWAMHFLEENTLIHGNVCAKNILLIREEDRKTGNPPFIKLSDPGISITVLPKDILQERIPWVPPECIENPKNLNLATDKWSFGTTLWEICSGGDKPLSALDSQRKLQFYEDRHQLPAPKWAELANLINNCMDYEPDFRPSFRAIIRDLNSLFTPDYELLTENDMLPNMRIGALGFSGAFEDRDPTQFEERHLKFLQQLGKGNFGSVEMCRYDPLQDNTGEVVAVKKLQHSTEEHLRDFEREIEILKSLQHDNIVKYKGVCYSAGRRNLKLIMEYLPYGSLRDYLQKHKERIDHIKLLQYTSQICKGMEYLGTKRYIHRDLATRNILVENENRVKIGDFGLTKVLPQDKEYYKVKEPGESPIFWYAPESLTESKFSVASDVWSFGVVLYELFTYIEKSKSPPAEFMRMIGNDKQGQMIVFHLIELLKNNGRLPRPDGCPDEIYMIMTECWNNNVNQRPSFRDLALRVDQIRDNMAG
Sequence of IKKε (Q14164 whole entry): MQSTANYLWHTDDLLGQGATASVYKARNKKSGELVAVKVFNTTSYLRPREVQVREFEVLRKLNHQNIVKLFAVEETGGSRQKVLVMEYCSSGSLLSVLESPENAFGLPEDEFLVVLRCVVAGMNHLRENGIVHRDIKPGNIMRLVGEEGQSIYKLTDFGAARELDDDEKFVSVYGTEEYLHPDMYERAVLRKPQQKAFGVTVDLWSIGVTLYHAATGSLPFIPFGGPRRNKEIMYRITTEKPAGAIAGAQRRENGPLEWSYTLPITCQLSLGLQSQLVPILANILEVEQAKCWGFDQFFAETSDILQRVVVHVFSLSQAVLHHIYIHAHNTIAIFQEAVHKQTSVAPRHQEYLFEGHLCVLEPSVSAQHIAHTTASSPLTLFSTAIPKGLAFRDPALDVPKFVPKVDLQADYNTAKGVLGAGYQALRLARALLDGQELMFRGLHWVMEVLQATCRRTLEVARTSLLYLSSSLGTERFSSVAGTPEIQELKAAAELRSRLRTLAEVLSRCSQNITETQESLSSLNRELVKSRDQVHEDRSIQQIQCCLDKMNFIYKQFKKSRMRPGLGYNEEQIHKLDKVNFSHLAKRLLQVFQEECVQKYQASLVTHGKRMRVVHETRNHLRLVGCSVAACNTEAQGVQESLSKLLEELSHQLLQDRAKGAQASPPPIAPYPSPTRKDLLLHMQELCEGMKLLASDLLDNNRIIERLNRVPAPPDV

| Compound | IC50 [1] [nM] | IC50 [2] [nM] | IC50 [3] [nM] |
| --- | --- | --- | --- |
| C[C@H](O)C(=O)N1CC[C@H](Oc2ccc(-c3ncnc(Nc4cnn(C5COC5)c4)n3)cc2C#N)[C@H](F)C1 [Example 353, 2-(((3R,4S)-3-fluoro-1-((S)-2-hydroxypropanoyl)piperidin-4-yl)oxy)-5-(4-((1-(oxetan-3-yl)-1H-pyrazol-4-yl)amino)-1,3,5-triazin-2-yl)benzonitrile] | 10 | 944 | 7 |
| C[C@H](O)C(=O)N1CC[C@H](Oc2ccc(-c3ncnc(Nc4cnn(C5CCOCC5)c4)n3)cc2C#N)[C@H](F)C1 [Example 354, 2-(((3R,4S)-3-fluoro-1-((S)-2-hydroxypropanoyl)piperidin-4-yl)oxy)-5-(4-((1-(tetrahydro-2H-pyran-4-yl)-1H-pyrazol-4-yl)amino)-1,3,5-triazin-2-yl)benzonitrile] | 5 | 309 | 6 |
| N#Cc1cc(-c2ncnc(Nc3ccc(N4CCN(C5COC5)CC4)cc3)n2)ccc1O[C@H]1CCN(C(=O)c2cn[nH]c2)C[C@H]1F [Example 356, 2-(((3R,4S)-3-fluoro-1-(1H-pyrazole-4-carbonyl)piperidin-4-yl)oxy)-5-(4-((4-(4-(oxetan-3-yl)piperazin-1-yl)phenyl)amino)-1,3,5-triazin-2-yl)benzonitrile] | 3 | 550 | 2 |
| C[C@H](O)C(=O)N1CC[C@H](Oc2ccc(-c3ncnc(Nc4ccc(N5CCC[C@@H](O)C5)cc4)n3)cc2C#N)[C@H](F)C1 [Example 357, 2-(((3R,4S)-3-fluoro-1-((S)-2-hydroxypropanoyl)piperidin-4-yl)oxy)-5-(4-((4-((R)-3-hydroxypiperidin-1-yl)phenyl)amino)-1,3,5-triazin-2-yl)benzonitrile] | 2 | 511 | 4 |
| C[C@H](O)C(=O)N1CC[C@H](Oc2ccc(-c3ncnc(Nc4cnc(N5CCN(C6COC6)CC5)c(F)c4)n3)cc2C#N)[C@H](F)C1 [Example 358, 2-(((3R,4S)-3-fluoro-1-((S)-2-hydroxypropanoyl)piperidin-4-yl)oxy)-5-(4-((5-fluoro-6-(4-(oxetan-3-yl)piperazin-1-yl)pyridin-3-yl)amino)-1,3,5-triazin-2-yl)benzonitrile] | 11 | ≥ 1000 | 6 |
| C[C@H](O)C(=O)N1CCCC(Oc2ccc(-c3ncnc(Nc4ccc(N5CCN(C6COC6)CC5)cc4)n3)cc2C#N)CC1 (stereo partly drawn) [Example 359, 2-((1-((S)-2-hydroxypropanoyl)azepan-4-yl)oxy)-5-(4-((4-(4-(oxetan-3-yl)piperazin-1-yl)phenyl)amino)-1,3,5-triazin-2-yl)benzonitrile] | 37 | 995 | 17 |
| CCn1cc(Nc2ncnc(-c3ccc(O[C@H]4CCN(C(=O)CO)C[C@H]4F)c(C#N)c3)n2)cn1 [Example 360, 5-(4-((1-ethyl-1H-pyrazol-4-yl)amino)-1,3,5-triazin-2-yl)-2-(((3R,4S)-3-fluoro-1-(2-hydroxyacetyl)piperidin-4-yl)oxy)benzonitrile] | 2 | 185 | 3 |
| N#Cc1cc(-c2ncnc(Nc3cnn(CC(F)F)c3)n2)ccc1O[C@H]1CCN(C(=O)CO)C[C@H]1F [Example 361, 5-(4-((1-(2,2-difluoroethyl)-1H-pyrazol-4-yl)amino)-1,3,5-triazin-2-yl)-2-(((3R,4S)-3-fluoro-1-(2-hydroxyacetyl)piperidin-4-yl)oxy)benzonitrile] | 1 | 317 | 2 |
| C[C@H](O)C(=O)N1CC[C@H](Oc2ccc(-c3ncnc(Nc4ccc(N5CCCOCC5)cc4)n3)cc2C#N)[C@H](F)C1 [Example 363, 5-(4-((4-(1,4-oxazepan-4-yl)phenyl)amino)-1,3,5-triazin-2-yl)-2-(((3R,4S)-3-fluoro-1-((S)-2-hydroxypropanoyl)piperidin-4-yl)oxy)benzonitrile] | 1 | 665 | 3 |
| C[C@H](O)C(=O)N1CC[C@H](Oc2ccc(-c3ncnc(Nc4ccc(N5CC6(COC6)C5)cc4)n3)cc2C#N)[C@H](F)C1 [Example 364, 5-(4-((4-(2-oxa-6-azaspiro[3.3]heptan-6-yl)phenyl)amino)-1,3,5-triazin-2-yl)-2-(((3R,4S)-3-fluoro-1-((S)-2-hydroxypropanoyl)piperidin-4-yl)oxy)benzonitrile] | 4 | 634 | 5 |
| C[C@H](O)C(=O)N1CC[C@H](Oc2ccc(-c3ncnc(Nc4ccc(N5CCC6(CC5)COC6)cc4)n3)cc2C#N)[C@H](F)C1 [Example 365, 5-(4-((4-(2-oxa-7-azaspiro[3.5]nonan-7-yl)phenyl)amino)-1,3,5-triazin-2-yl)-2-(((3R,4S)-3-fluoro-1-((S)-2-hydroxypropanoyl)piperidin-4-yl)oxy)benzonitrile] | 2 | 474 | 4 |
| C[C@H](O)C(=O)N1CC[C@H](Oc2ccc(-c3ncnc(Nc4ccc(N5CCN(C6COC6)CC5)c(F)c4)n3)cc2C#N)[C@H](F)C1 [Example 367, 2-(((3R,4S)-3-fluoro-1-((S)-2-hydroxypropanoyl)piperidin-4-yl)oxy)-5-(4-((3-fluoro-4-(4-(oxetan-3-yl)piperazin-1-yl)phenyl)amino)-1,3,5-triazin-2-yl)benzonitrile] | 2 | ≥ 1000 | 3 |
| N#Cc1cc(-c2ncnc(Nc3ccc(N4CCN(C5COC5)CC4)c(C(F)(F)F)c3)n2)ccc1O[C@H]1CCN(C(=O)CO)C[C@H]1F [Example 368, 2-(((3R,4S)-3-fluoro-1-(2-hydroxyacetyl)piperidin-4-yl)oxy)-5-(4-((4-(4-(oxetan-3-yl)piperazin-1-yl)-3-(trifluoromethyl)phenyl)amino)-1,3,5-triazin-2-yl)benzonitrile] | 2 | 225 | 3 |
| C[C@H](O)C(=O)N1CC[C@H](Oc2ccc(-c3ncnc(Nc4ccc(N5CCN(C6COC6)CC5)c(C(F)(F)F)c4)n3)cc2C#N)[C@H](F)C1 [Example 370, 2-(((3R,4S)-3-fluoro-1-((S)-2-hydroxypropanoyl)piperidin-4-yl)oxy)-5-(4-((4-(4-(oxetan-3-yl)piperazin-1-yl)-3-(trifluoromethyl)phenyl)amino)-1,3,5-triazin-2-yl)benzonitrile] | 8 | 875 | 5 |
| C[C@H](O)C(=O)N1CC[C@H](Oc2ccc(-c3ncnc(Nc4ccc(N5CCN(C6COC6)CC5)c(C(F)F)c4)n3)cc2C#N)[C@H](F)C1 [Example 371, 5-(4-((3-(difluoromethyl)-4-(4-(oxetan-3-yl)piperazin-1-yl)phenyl)amino)-1,3,5-triazin-2-yl)-2-(((3R,4S)-3-fluoro-1-((S)-2-hydroxypropanoyl)piperidin-4-yl)oxy)benzonitrile] | 1 | 989 | 2 |
| N#Cc1cc(-c2ncnc(Nc3ccc(N4CCN(C5COC5)CC4)c(F)c3)n2)ccc1O[C@H]1CCN(C(=O)[C@@H]2CCC(=O)N2)C[C@H]1F [Example 372, 2-(((3R,4S)-3-fluoro-1-((S)-5-oxopyrrolidine-2-carbonyl)piperidin-4-yl)oxy)-5-(4-((3-fluoro-4-(4-(oxetan-3-yl)piperazin-1-yl)phenyl)amino)-1,3,5-triazin-2-yl)benzonitrile] | 5 | 305 | 4 |
